Data from ChEMBL document CHEMBL1201862, “PubChem BioAssay data set” (2004).
Several values for one entry are separate records, joined by “and”; a condition that tells them apart may be missing. Equal entries are not always repeated. Activity calls are given as the source filed them.

Columns and labels:
[1] = target: Glyceraldehyde-3-phosphate dehydrogenase (Homo sapiens, UniProt P04406)
[2] = target: Alkaline phosphatase, placental type (Homo sapiens, UniProt P05187); experiment: human placental alkaline phosphatase inhibition – biochemical, luminescence, confirmation (AID 1512); type: functional
Sequence of Alkaline phosphatase, placental type (P05187 whole entry): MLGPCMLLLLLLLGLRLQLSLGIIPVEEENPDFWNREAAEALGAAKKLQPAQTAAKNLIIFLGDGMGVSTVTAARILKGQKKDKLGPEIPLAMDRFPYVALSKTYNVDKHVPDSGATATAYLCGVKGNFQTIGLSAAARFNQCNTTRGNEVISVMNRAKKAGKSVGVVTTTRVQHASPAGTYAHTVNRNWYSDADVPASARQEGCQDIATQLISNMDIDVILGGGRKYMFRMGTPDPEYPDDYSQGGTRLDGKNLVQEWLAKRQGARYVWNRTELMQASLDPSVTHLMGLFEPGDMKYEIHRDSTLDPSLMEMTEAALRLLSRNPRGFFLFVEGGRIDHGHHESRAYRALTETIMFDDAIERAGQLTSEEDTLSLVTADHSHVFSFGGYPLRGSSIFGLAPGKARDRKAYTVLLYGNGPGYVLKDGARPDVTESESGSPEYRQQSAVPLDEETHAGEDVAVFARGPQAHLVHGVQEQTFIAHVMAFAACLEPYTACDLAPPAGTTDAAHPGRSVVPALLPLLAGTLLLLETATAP

[3] = target: T1, Alkaline phosphatase, tissue-nonspecific isozyme (Homo sapiens, UniProt P05186); experiment: potency against alkaline phosphatase TNAP – biochemical, luminescent, dose response, SAR follow-up (AID 1056)
T1 sequence (P05186 whole entry): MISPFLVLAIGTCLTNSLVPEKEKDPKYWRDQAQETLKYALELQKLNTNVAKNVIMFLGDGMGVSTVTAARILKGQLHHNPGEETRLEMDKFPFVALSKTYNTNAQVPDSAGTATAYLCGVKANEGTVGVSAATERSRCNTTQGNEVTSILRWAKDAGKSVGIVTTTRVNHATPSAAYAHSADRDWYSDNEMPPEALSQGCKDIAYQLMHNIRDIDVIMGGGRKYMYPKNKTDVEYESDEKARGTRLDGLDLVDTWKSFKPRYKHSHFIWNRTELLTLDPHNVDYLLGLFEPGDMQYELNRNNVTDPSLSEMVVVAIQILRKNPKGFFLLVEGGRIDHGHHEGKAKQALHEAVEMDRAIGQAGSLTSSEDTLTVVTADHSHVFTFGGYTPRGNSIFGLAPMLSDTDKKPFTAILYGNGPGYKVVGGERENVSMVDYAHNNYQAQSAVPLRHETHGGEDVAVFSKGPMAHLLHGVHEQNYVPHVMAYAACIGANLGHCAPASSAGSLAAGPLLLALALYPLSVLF

Large T antigen = Large T antigen (Simian virus 40, UniProt P03070); type: functional, Betapolyomavirus macacae;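 further: Confirmatory-stage PubChem screen for compounds that inhibit SV40 T antigen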
Sequence of Large T antigen (P03070 whole entry): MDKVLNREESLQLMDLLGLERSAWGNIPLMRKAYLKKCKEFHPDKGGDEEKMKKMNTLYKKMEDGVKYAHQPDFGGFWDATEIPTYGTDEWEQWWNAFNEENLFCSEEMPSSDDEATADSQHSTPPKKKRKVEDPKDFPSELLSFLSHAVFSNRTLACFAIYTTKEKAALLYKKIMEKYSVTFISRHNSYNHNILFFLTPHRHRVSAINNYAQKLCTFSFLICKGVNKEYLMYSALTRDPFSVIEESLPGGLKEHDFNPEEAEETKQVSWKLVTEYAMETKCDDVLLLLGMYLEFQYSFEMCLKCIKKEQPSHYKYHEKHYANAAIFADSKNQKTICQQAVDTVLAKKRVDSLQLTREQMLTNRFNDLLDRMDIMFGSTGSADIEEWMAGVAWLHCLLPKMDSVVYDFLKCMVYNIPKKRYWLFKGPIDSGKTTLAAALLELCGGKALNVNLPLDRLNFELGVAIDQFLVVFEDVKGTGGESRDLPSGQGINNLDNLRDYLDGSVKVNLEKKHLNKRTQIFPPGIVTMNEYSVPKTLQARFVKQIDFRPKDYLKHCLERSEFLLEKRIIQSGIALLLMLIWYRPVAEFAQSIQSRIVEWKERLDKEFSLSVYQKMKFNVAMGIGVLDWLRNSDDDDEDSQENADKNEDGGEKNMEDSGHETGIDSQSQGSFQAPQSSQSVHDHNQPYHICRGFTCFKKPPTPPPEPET

[4] = target: Lysine-specific demethylase 4A (Homo sapiens, UniProt O75164); experiment: inhibition of JMJD2A H3K9me3 demethylation – biochemical, DELFIA europium, cherry-picked samples, selectivity assay for GASC-1 inhibitor project, dose response (AID 488840)
Sequence of Lysine-specific demethylase 4A (O75164 whole entry): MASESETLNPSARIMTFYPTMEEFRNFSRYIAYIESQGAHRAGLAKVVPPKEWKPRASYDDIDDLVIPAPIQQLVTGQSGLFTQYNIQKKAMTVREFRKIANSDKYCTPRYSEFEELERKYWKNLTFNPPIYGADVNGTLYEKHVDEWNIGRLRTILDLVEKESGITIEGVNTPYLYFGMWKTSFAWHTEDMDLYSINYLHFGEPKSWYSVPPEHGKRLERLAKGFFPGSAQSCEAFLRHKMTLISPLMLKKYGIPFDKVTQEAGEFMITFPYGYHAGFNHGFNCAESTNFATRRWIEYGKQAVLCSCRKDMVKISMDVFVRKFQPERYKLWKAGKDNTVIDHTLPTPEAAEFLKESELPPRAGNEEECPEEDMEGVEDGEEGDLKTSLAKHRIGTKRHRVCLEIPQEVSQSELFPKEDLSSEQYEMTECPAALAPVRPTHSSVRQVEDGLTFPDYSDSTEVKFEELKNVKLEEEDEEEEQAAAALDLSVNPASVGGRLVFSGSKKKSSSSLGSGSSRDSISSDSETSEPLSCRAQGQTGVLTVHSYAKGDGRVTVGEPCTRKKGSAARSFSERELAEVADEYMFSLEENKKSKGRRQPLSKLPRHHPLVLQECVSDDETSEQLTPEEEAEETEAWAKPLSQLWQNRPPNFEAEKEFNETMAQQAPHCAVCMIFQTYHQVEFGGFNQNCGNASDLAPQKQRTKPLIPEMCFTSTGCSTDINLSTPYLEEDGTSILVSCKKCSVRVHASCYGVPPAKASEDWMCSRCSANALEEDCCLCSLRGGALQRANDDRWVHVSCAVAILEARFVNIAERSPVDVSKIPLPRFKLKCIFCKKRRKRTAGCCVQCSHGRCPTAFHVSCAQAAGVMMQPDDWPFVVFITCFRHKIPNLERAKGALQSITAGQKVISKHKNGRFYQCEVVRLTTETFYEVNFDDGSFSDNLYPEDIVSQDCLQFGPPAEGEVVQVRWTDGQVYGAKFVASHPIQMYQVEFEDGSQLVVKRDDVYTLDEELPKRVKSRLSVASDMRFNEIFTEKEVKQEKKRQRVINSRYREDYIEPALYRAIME

[5] = target: T2, Lysine-specific demethylase 4C (Homo sapiens, UniProt Q9H3R0); experiment: inhibition of JMJD2C H3K9me3 demethylation – biochemical, DELFIA europium, cherry-picked samples, dose response (AID 488835); type: functional
T2 sequence (Q9H3R0 whole entry): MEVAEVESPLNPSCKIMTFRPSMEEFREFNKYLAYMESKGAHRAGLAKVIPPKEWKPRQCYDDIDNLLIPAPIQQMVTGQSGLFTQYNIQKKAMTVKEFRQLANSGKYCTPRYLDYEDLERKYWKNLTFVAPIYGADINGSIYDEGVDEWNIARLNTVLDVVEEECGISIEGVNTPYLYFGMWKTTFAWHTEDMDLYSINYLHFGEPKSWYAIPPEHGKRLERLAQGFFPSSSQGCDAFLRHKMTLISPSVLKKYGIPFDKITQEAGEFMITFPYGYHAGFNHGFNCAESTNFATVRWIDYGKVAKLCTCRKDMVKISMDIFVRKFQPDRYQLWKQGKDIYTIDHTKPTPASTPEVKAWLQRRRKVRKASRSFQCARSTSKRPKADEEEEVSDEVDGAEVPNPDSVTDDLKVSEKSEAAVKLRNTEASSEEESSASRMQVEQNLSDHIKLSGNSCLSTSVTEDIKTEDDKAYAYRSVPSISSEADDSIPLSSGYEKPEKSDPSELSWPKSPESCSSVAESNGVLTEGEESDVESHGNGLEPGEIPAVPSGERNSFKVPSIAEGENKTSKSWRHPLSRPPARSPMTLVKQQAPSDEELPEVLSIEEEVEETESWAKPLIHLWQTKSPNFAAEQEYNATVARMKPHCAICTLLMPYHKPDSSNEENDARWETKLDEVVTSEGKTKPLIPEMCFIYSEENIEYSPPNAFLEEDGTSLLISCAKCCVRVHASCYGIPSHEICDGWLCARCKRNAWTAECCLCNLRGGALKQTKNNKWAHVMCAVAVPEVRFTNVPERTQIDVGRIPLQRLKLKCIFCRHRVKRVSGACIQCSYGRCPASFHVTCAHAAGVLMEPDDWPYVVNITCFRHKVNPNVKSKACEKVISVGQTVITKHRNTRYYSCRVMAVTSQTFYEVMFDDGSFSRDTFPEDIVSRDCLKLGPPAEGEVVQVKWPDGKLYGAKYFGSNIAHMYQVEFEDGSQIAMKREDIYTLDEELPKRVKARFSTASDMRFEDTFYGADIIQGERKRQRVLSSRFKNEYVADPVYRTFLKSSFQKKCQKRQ

[6] = target: T3, Carboxy-terminal domain RNA polymerase II polypeptide A small phosphatase 1 (Homo sapiens, UniProt Q9GZU7); experiment: CTDSP1 inhibitors, concentration-response, biochemical, absorbance readout, ultra-high-throughput screen actives (AID 540297); type: functional
T3 sequence (Q9GZU7 whole entry): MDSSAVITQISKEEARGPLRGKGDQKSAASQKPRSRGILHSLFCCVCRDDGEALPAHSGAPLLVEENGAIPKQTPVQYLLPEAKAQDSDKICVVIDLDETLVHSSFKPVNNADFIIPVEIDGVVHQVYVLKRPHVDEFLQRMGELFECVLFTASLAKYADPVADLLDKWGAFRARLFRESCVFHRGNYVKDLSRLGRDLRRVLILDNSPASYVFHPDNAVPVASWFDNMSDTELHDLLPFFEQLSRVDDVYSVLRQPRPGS

Albumin = Albumin (Bos taurus, UniProt P02769); experiment: Counterscreen for inhibitors of T-cell receptor (TCR)-CD3 interaction: Fluorescence-based biochemical high throughput dose response assay to identify inhibitors of T-cell receptor (TCR)-CD3 interaction using a TAMRA-labeled BSA probe.; type: functional
Sequence of Albumin (P02769 whole entry): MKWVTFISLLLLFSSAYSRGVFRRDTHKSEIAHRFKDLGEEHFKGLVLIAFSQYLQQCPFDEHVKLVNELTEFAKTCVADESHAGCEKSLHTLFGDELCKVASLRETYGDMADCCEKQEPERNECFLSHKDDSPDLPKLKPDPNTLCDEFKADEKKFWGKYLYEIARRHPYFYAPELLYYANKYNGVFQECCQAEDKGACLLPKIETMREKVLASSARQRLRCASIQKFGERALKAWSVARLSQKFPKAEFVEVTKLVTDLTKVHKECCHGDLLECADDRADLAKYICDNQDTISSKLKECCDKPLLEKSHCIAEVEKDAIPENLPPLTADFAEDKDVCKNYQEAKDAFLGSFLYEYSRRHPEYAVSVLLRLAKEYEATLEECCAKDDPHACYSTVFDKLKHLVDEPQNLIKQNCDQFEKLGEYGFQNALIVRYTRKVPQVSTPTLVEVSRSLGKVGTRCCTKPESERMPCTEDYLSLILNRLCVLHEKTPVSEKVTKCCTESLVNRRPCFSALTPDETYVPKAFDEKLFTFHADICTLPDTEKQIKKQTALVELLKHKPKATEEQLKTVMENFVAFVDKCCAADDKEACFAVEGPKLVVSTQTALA

[7] = target: T4, Tyrosine-protein phosphatase non-receptor type 22 (Homo sapiens, UniProt Q9Y2R2); experiment: LYP1 Fluorescent Assay using OMFP substrate for In Vitro dose response studies. [Related pubchem assays (depositor defined):AID1779, AID1784, AID435024]
T4 sequence (Q9Y2R2 whole entry): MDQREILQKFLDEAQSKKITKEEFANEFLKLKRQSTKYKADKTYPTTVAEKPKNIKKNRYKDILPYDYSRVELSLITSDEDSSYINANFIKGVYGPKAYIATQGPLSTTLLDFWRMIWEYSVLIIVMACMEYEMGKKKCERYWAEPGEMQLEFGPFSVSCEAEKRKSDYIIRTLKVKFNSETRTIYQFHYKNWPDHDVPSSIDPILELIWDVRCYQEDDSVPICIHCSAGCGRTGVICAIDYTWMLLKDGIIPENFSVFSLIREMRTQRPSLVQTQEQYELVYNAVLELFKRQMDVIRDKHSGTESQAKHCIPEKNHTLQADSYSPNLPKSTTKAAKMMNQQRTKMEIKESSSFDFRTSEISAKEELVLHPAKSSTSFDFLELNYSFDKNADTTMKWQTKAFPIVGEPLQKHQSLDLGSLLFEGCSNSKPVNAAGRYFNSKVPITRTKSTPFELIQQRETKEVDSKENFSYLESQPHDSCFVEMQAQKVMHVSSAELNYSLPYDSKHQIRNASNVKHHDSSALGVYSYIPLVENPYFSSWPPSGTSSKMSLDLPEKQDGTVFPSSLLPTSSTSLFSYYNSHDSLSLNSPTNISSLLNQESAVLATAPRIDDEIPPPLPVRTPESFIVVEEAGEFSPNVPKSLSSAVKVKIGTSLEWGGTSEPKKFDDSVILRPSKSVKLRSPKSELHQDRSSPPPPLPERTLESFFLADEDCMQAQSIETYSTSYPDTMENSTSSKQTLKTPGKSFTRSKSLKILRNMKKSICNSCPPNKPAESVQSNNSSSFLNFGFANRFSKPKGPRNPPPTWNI

Aminopeptidase N = target: T5, Aminopeptidase N (Plasmodium falciparum FcB1/Columbia, UniProt O96935); experiment: malaria alanyl aminopeptidase activity blockers – biochemical, fluorogenic H-Leu-NHMec substrate, 1536-well (AID 1445); design: species or system Plasmodium falciparum 3D7, 3D7
T5 sequence (O96935 whole entry): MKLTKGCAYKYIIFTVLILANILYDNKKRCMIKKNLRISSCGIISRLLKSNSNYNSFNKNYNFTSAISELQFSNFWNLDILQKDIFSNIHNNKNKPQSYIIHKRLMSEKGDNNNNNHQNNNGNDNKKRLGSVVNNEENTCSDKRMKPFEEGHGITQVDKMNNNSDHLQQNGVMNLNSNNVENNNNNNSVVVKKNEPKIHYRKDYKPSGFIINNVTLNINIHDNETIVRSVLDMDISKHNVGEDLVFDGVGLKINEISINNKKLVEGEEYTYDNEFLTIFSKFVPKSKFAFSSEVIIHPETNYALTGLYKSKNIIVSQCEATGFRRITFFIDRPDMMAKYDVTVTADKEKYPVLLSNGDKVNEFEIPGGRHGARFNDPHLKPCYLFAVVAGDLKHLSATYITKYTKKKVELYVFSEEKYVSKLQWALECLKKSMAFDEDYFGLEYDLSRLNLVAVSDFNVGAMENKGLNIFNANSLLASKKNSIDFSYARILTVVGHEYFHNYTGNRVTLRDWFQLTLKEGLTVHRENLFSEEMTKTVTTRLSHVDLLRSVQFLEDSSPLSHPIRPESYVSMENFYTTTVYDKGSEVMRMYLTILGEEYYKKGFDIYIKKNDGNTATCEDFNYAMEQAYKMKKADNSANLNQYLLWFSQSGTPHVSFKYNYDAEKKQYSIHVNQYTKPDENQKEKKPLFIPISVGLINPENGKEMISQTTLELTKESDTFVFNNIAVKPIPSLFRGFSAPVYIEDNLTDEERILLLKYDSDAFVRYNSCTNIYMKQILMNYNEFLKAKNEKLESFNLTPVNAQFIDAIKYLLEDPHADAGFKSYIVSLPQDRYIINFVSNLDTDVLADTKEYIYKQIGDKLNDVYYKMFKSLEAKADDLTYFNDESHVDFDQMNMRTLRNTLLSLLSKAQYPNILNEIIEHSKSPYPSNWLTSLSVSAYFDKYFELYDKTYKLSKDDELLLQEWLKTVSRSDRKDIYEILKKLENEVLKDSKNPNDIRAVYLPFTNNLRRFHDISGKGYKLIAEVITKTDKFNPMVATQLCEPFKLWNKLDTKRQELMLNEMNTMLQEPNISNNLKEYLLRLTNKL

[8] = target: T6, Dual specificity protein phosphatase 3 (Homo sapiens, UniProt P51452); experiment: VHR1 phosphatase inhibitors, primary screen, biochemical, absorbance, uHTS (AID 1654)
T6 sequence (P51452 whole entry): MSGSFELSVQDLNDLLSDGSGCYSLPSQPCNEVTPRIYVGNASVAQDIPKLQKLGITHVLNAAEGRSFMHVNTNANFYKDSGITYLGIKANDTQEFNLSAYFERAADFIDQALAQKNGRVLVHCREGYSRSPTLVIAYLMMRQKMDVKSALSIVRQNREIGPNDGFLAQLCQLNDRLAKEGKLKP

[9] = target: T7, Tyrosine-protein phosphatase non-receptor type 7 (Homo sapiens, UniProt P35236); type: functional
T7 sequence (P35236 whole entry): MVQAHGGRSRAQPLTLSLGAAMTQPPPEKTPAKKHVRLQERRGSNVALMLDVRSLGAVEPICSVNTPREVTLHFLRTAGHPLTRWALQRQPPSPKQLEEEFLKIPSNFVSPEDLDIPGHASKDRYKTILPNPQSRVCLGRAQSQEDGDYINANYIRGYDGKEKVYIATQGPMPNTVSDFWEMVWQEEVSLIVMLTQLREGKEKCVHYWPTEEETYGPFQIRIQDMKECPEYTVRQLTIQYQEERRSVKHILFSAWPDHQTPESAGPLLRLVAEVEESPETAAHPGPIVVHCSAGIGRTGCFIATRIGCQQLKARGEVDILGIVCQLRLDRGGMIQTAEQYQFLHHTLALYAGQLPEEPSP

[10] = target: T7, Tyrosine-protein phosphatase non-receptor type 7; experiment: HTS HePTP Fluorescent Assay using OMFP substrate for In Vitro dose response studies. [Related pubchem assays (depositor defined):AID1059, AID1077, AID1784, AID2068, AID2085, AID435032, AID521]; type: functional
[11] = target: T4, Tyrosine-protein phosphatase non-receptor type 22; experiment: PTPN22 lymphoid phosphatase activity blockers – biochemical, fluorescence intensity, uHTS (AID 1779)
[12] = target: T6, Dual specificity protein phosphatase 3; experiment: VHR1 phosphatase inhibitors, biochemical (AID 1878)
[13] = target: T8, Dual specificity protein phosphatase 6 (Rattus norvegicus, UniProt Q64346); experiment: inhibition of rat DUSP6 enzyme activity – biochemical, in vitro, primary screen (AID 425)
T8 sequence (Q64346 whole entry): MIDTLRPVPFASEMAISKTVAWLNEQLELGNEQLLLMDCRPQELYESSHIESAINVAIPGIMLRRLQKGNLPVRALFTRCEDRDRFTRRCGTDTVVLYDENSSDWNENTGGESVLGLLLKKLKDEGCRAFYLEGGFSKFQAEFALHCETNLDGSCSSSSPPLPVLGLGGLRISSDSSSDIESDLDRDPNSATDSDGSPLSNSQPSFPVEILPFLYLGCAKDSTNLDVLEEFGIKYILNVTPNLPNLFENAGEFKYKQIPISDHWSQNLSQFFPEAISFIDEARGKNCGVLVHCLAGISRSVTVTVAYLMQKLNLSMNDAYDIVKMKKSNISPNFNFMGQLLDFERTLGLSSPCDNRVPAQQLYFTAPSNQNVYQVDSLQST

[14] = target: T4, Tyrosine-protein phosphatase non-receptor type 22; type: functional
[15] = target: T4, Tyrosine-protein phosphatase non-receptor type 22; type: functional; remark: listed apart in the source

Sequence of Glyceraldehyde-3-phosphate dehydrogenase (P04406 whole entry): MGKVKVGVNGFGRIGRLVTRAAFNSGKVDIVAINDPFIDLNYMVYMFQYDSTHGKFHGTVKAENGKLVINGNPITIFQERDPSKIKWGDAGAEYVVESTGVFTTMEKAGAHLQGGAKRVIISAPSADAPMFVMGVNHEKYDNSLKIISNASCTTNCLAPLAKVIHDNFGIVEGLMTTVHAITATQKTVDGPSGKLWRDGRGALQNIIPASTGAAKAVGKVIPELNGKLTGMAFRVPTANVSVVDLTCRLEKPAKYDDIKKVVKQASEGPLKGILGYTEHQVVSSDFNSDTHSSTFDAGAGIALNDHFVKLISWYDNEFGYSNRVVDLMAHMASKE

Oc1ccccc1-c1n[nH]c(-c2ccccc2O)n1
IC50 [1]: > 100 µM (not active) | IC50 [2]: > 100 µM (inactive) | IC50 [3]: > 100 µM (inactive)

O=C1C2CC=CCC2C(=O)N1c1nnc(Cc2ccccc2)[nH]1 (stereo not drawn)
IC50 [1]: > 100 µM (not active) | IC50 [2]: 2.04 µM (active) and 3.25 µM (active) | IC50 [3]: 169 nM (active) and 126 nM (active) and 172 nM (active)

COc1ccc(NN=Nc2nc3c(=O)n(C)c(=O)n(C)c3[nH]2)cc1
IC50 (Large T antigen): 36.8 µM (active) | AC50 [4]: > 60 µM (inactive) | AC50 [5]: 8.08 µM (active)

Cc1ccc(C(=O)NNC(=O)c2ccc3ccccc3c2O)cc1
AC50 [4]: 6.59 µM (active) | AC50 [5]: 8.8 µM (active) | IC50 [6]: 7.74 µM (active) | IC50 (Albumin): > 94 µM (inactive)

COc1ccc(/N=C2\S/C(=C\c3ccc(OCC(=O)O)cc3)C(=O)N2CCc2c[nH]c3ccccc23)cc1
IC50 [7]: > 99 µM (inactive) | IC50 (Aminopeptidase N): 75.7 µM (active) | IC50 [8]: 3.49 µM (active) | IC50 [9]: 2.52 µM (active) | IC50 [10]: > 99 µM (inactive) | IC50 [11]: > 99 µM (inactive) | IC50 [12]: 2.43 µM (active) | IC50 [13]: > 158 µM (not active) | IC50 [14]: < 1.24 µM (active) | IC50 [15]: < 1.24 µM (active)
